Assay results taken from PubChem BioAssay (NCI).
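How tested: cells in 96-well plates exposed to compound for 48 hours at five concentrations. Here, GI50 denotes the concentration required for 50% inhibition of growth. TGI: total growth inhibition.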

What was measured:
Experiment in all cases: NCI anticancer screen, dose series, 48 h
HCT-116 colon = system: HCT-116 colon
NCI-H522 lung = system: NCI-H522 lung
SK-OV-3 ovarian = system: SK-OV-3 ovarian
MCF7 breast = system: MCF7 breast
K-562 leukemia = system: K-562 leukemia
KM12 colon = system: KM12 colon
RXF 393 renal = system: RXF 393 renal
MDA-MB-435 = system: MDA-MB-435
NCI/ADR-RES ovarian = system: NCI/ADR-RES ovarian
PC-3 prostate = system: PC-3 prostate
MOLT-4 leukemia = system: MOLT-4 leukemia
SK-MEL-5 melanoma = system: SK-MEL-5 melanoma
LOX IMVI melanoma = system: LOX IMVI melanoma
HL-60(TB) leukemia = system: HL-60(TB) leukemia
UO-31 renal = system: UO-31 renal
OVCAR-4 ovarian = system: OVCAR-4 ovarian
IGROV1 ovarian = system: IGROV1 ovarian
HT29 colon = system: HT29 colon
NCI-H23 lung = system: NCI-H23 lung
SK-MEL-28 melanoma = system: SK-MEL-28 melanoma
786-0 renal = system: 786-0 renal
OVCAR-3 ovarian = system: OVCAR-3 ovarian
OVCAR-8 ovarian = system: OVCAR-8 ovarian
HOP-92 NSCLC = system: HOP-92 NSCLC
UACC-257 melanoma = system: UACC-257 melanoma
NCI-H460 lung = system: NCI-H460 lung
CAKI-1 renal = system: CAKI-1 renal
DU-145 prostate = system: DU-145 prostate

`COc1ccccc1-n1c(SCc2cc(OC)c(OC)c(OC)c2)nc2ccc(Cl)cc2c1=O` gave a GI50 (HCT-116 colon) of 2.53 µM, a TGI (HCT-116 colon) of over 100 µM and a GI50 (NCI-H522 lung) of 2.61 µM. It also gave a TGI (NCI-H522 lung) of over 100 µM, a GI50 (SK-OV-3 ovarian) of 7.76 µM and a TGI (SK-OV-3 ovarian) of over 100 µM. It also gave a GI50 (MCF7 breast) of 0.915 µM, a TGI (MCF7 breast) of over 100 µM and a GI50 (K-562 leukemia) of 1.02 µM. It also gave a TGI (K-562 leukemia) of over 100 µM, a GI50 (KM12 colon) of 1.46 µM and a TGI (KM12 colon) of over 100 µM. For the same compound, the GI50 (RXF 393 renal) was 3.78 µM, the TGI (RXF 393 renal) was over 100 µM and the GI50 (MDA-MB-435) was 0.366 µM. It also gave a TGI (MDA-MB-435) of 25.8 µM, a GI50 (NCI/ADR-RES ovarian) of 2.25 µM and a TGI (NCI/ADR-RES ovarian) of over 100 µM. For the same compound, the GI50 (PC-3 prostate) was 2.65 µM, the TGI (PC-3 prostate) was over 100 µM and the GI50 (MOLT-4 leukemia) was 3.05 µM. For the same compound, the TGI (MOLT-4 leukemia) was over 100 µM, the GI50 (SK-MEL-5 melanoma) was 1.47 µM and the TGI (SK-MEL-5 melanoma) was over 100 µM. The GI50 (LOX IMVI melanoma) was 5.16 µM, the TGI (LOX IMVI melanoma) was over 100 µM and the GI50 (HL-60(TB) leukemia) was 2.99 µM. For the same compound, the TGI (HL-60(TB) leukemia) was 18.7 µM, the GI50 (UO-31 renal) was 8.52 µM and the TGI (UO-31 renal) was over 100 µM. For the same compound, the GI50 (OVCAR-4 ovarian) was 7.35 µM, the TGI (OVCAR-4 ovarian) was over 100 µM and the GI50 (IGROV1 ovarian) was 10.9 µM. The TGI (IGROV1 ovarian) was over 100 µM, the GI50 (HT29 colon) was 2.91 µM and the TGI (HT29 colon) was over 100 µM. For the same compound, the GI50 (NCI-H23 lung) was 5.9 µM, the TGI (NCI-H23 lung) was over 100 µM and the GI50 (SK-MEL-28 melanoma) was 5.76 µM. It also gave a TGI (SK-MEL-28 melanoma) of over 100 µM, a GI50 (786-0 renal) of 4.46 µM and a TGI (786-0 renal) of over 100 µM. It also gave a GI50 (OVCAR-3 ovarian) of 2.21 µM, a TGI (OVCAR-3 ovarian) of 15.9 µM and a GI50 (OVCAR-8 ovarian) of 8.86 µM. The TGI (OVCAR-8 ovarian) was over 100 µM, the GI50 (HOP-92 NSCLC) was 2.78 µM and the TGI (HOP-92 NSCLC) was 99.6 µM. It also gave a GI50 (UACC-257 melanoma) of 5.7 µM, a TGI (UACC-257 melanoma) of over 100 µM and a GI50 (NCI-H460 lung) of 3.34 µM. It also gave a TGI (NCI-H460 lung) of over 100 µM, a GI50 (CAKI-1 renal) of 2.8 µM and a TGI (CAKI-1 renal) of over 100 µM. For the same compound, the GI50 (DU-145 prostate) was 9.12 µM.
